Test [1] addresses T1, ferrochelatase variant P255G (Mus musculus, UniProt P22315, P308G).
T1 construct: In wild-type, murine, mature ferrochelatase, five tryptophan residues; penta-histidine tag (N); made in house; host or cells: E. coli BL21(DE3)
T1 sequence (P22315 54-422 P308G): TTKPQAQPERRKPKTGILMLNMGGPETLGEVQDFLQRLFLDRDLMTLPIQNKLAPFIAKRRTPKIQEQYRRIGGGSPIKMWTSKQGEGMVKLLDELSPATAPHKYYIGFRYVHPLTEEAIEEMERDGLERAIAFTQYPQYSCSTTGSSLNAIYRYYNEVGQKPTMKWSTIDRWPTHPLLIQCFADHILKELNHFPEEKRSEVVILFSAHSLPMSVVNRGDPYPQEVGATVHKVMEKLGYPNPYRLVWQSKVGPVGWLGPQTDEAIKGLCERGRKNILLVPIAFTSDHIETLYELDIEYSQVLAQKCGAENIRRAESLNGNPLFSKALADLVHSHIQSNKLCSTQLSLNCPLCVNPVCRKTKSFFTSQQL
The experiment in a line: Transient kinetic analysis of NMPP inhibition (stopped-flow, zinc-protoporphyrin formation). The class given is biochemical, murine. The method, then:
Enzyme (0.5 μM) was reacted with protoporphyrin (5 μM) and zinc-acetate (15 μM) in the presence of various concentrations of NMPP. The pseudo first-order rate constant k was obtained from analysis of the time course (see Materials and Methods and FIG. 4) and plotted against NMPP concentration. The enzymes used in each set were: A. wild-type ferrochelatase; B. variant P255R; C. variant P255G.
The pseudo-first order rate constant dependence on NMPP concentration was best described by equation 2:
[formula] and k−1 are the forward and reverse rate constants, respectively.
Although NMPP binding to P255G occurred via a one-step reaction, the values for the rate constants associated with this step (k1 and k−1) were similar to those determined for the rate-limiting step of the kinetic pathway for inhibition of ferrochelatase and P255R by NMPP.
Transient Kinetic Analysis. The kinetic steps involved in NMPP binding to ferrochelatase were assessed using stopped-flow absorption spectroscopic analysis by monitoring the enzymatic reaction in the presence of various concentrations of the inhibitor NMPP. The reactions were performed using a rapid scanning stopped-flow spectrophotometer (model RSM-1000; OLIS Inc.), equipped with a stopped-flow mixer and an observation chamber with an optical path-length of 4 mm. The dead time of the instrument is ˜2 ms. […] Enzymatic activity was monitored by following the increase in absorbance at 420 nm for zinc-protoporphyrin production using Zn^2+ and protoporphyrin as substrates.
The enzyme and substrate stock solutions were diluted in 100 mM Tris-acetate, pH 8.0, containing 0.5% Tween-80. […] The enzymatic reaction was initiated by mixing the contents from both syringes and reaction progression was monitored by following the increase in absorbance at 420 nm. The data were analyzed by fitting the observed absorbance values to equation 4:
[formula] where A is the observed absorbance, A0 is the initial absorbance, vs is the steady-state velocity, v0 is the initial velocity and k is the pseudo-first order rate constant for inhibitor binding. […]

The next test relates to ferrochelatase. As to conditions: background statement, potent inhibitor of ferrochelatase; cited from earlier work.

Turning to N-methyl protoporphyrin [NMPP], in test [1], the “forward rate constant (one-step binding)” value was 8.2e+06 M⁻¹ s⁻¹ and the “reverse rate constant k−1 (one-step binding)” value came out at 18.7 s⁻¹. Also, the Ki in test [1] (one-step fit (equation 2), from the rate constants, read-out: apparent inhibition constant Ki^app) stood at 2300 nM. For the same substance, the Ki with ferrochelatase was approximately 10 nM.

These data come from patent US8586530B2, “Modulation of inhibition of ferrochelatase by N-methyl protoporphyrin” (University of South Florida, priority 2006, dated 2013).
